# Tests used:
# Format in all cases: physicochemical
# [1] = QCM-D adsorption to PVC sensor surface; details: protein 3 formulation, PS20-poor solution, average, 95% CI±33.7%
# Description: (§1) The experiments detailed below were informed using quartz sensors coated with various surface compositions such as PVC, PE, PES, PVDF, PC, or PP. These sensors can be pre and post-run cleaned, for example, by way of a 30 min soak in 1% Deconex 11 Solution, a minimum 2 hr soak in DI water (usually overnight), followed by a rinse with DI water and 99% ethanol three times and then blown dry by medical grade nitrogen gas. The sensors were then inserted into a QCM unit as was sample solution, diluent (e.g., NS), and water. Runs were configured and data and procedures were collected. Experimental data was then transformed from frequency to mass data using, for example, the above equations. […]
# (§2) In one experimental run, over 60 sensorgrams (i.e., the outputs of the QCM-D instruments) were analyzed and transformed from frequency to mass adsorption data in the aforementioned example. Here the mass adsorbed during the sample period was of primary interest, and the mass during this period was measured by subtracting the average mass recorded and calculated during the diluent period where an ionic liquid had effect on resonance (period 2 above/520 in FIG. 5) from the average mass shift recorded and calculated during the sample period (period 3 above/530 in FIG. 5). […]
# [2] = QCM-D adsorption to PES sensor surface; details: protein 3 formulation, PS20-poor solution, average, 95% CI±5.2%
# Description: as §1, §2
# [3] = QCM-D adsorption, PS20 only runs, PVC and PES sensor surfaces pooled; details: all at the same concentration, protein 3 experiments, 95% CI±19.77 ng/sq cm
# Description: as §1, §2
substance,measurement,setting,value
polysorbate 20 [PS20],PS20 contribution to mass of layer at the surface,[1],35.56%
same,PS20 contribution to mass of layer at the surface,[2],12.22%
same,"average mass contribution, PS20 only runs",[3],40.20 ng/sq cm
